Common to all, as to type: physicochemical
Data set [1] can be described thus: Solubility in simulated biological fluid (FaSSGF and FaSSIF) at 37° C., HPLC; pH of filtrate, XRPD of filter cake. The note with it: for Concentration: 37° C.; for XRPD: filter cake; for pH (24 h): filtrate; for times more soluble than the free acid (Form II): 0.5-hour mark. Here is the method: Approximately between 15 mg and 24 mg of sample was suspended in 5 mL or 8 mL of FaSSGF or FaSSIF, respectively. The resulting suspension was shaken at 700 rpm with a QQMSC-100 shaker at 37° C. The suspension was sampled and filtered at certain time intervals, which was achieved by sampling 1000 μL of each suspension which was then filtered and diluted, diluting the resulting filtrate for HPLC analysis to assess solubility. The pH of the filtrate was measured, and the filter cake was analyzed by XRPD.
Approximately 15 mg to 24 mg of sample was suspended in 5 or 8 mL of FaSSGF or FaSSIF, respectively. The resulting suspension was shaken at 700 rpm with a QQMSC-100 shaker at 37° C. The suspension was sampled and filtered at certain time intervals, which was achieved by sampling 1000 μL of each suspension was filtered and diluted, diluting the resulting filtrate for HPLC analysis to assess solubility. The pH of the filtrate was measured, and the filter cake was analyzed by XRPD.
Approximately 15 mg to 24 mg of sample was suspended in 5 or 8 mL of FaSSGF or FaSSIF, respectively. The resulting suspension was shaken at 700 rpm with a QQMSC-100 shaker at 37° C. The suspension was sampled and filtered in certain time interval, which was achieved by sampling 1000 μL of each suspension was filtered and diluted, diluting the resulting filtrate for HPLC analysis to assess solubility. The pH of the filtrate was measured, and the filter cake was analyzed by XRPD.

Data set [2] is described as follows: Dynamic vapor sorption (DVS). As to conditions: for DVS weight gain: 25° C. On the procedure: Moisture sorption/desorption data was collected on a Vsorp Dynamic Moisture Sorption Analyzer (ProUmid GmbH & Co. KG, Germany). The sample was placed into a tared sample chamber and automatically weighed.
• Equilibrium Condition: 0.01%/40 min • Time between weighing cycles: 10 minutes • Minimum time per climate cycle: 50 minutes • Maximum time per climate cycle: 2.0 hour • Balanced condition: 25° C. at 60% […] for 4 hours • Sample temperature: 25° C. • Adsorption: 70, 80, 90 • Desorption: 80, 70, 60, 50, 40, 30, 20, 10, 0 • Adsorption: 10, 20, 30, 40, 50, 60

The nature of data set [3]: Solid-state stability (60° C./closed and 40° C./75% relative humidity open, up to seven days; HPLC purity, XRPD). On the procedure: HPLC method for stability and solubility testing is listed below.
• Column: Ascentis® Express C18 4.6*150 mm*2.7 μm • Mobile Phase A: 0.05% trifluoroacetic acid in water • Mobile Phase B: Methanol • Gradient (T/B %): 0/10, 10/100, 13.5/10, 15/10 • Column Temperature: 40° C. • Detector: DAD; 220 nm • Flow rate: 1.0 mL/min • Injection volume: 1 μL • Concentration: 1 mg/mL • Run time: 15 minutes • Diluent: Methanol:Water 9:1 (v/v)
The solid-state stability of Form III of the potassium salt was performed using the following protocol: • (1) A sample of Form III of the potassium salt was placed at 60° C./closed and 40° C./75% relative humidity (open) conditions for up to seven days. At the onset of the test (day 0) and day 7 of the test, the sample was dissolved in a diluent to prepare a 1 mg/mL solution for HPLC purity analysis. The solid sample was analyzed by XRPD to assess the crystal form of each solid at day 7. […] The XRPD data confirmed the physicochemical stability of Form III of the potassium salt under both closed and open conditions. […]

The nature of data set [4]: Solubility testing in organic solvents and water (visual, room temperature).
Data set [5] can be described thus: Water activity study of the crystalline potassium salt forms (acetone/water suspension, XRPD). As to conditions: water/acetone. Here is the method: A water activity study of the potassium salt forms was conducted in two groups: (i) Form I and Form III of the potassium salt, and (ii) Form II and Form III of the potassium salt.
Each suspension was shaken at 700 rpm in a shaker at 25° C., 35° C., 45° C., and 50° C., and the sample was analyzed by XRPD.

We go through five compounds from patent US20260224563A1, “CRYSTALLINE FORMS OF 6-(3-((5-CHLORO-2-METHOXYPYRIDINE)-3-SULFONAMIDO)-2,6-DIFLUOROPHENYL)-N-METHYLIMIDAZO[1,5-A]PYRAZINE-1-CARBOXAMIDE AND METHODS FOR USING THE SAME” (HIBERCELL, INC., priority 2023, published 2026).

≈ marks a conversion by molar mass, not a printed value. Where a name gives a salt, the structure may show the parent alone. Read-outs that look alike come from different tables or passages of the source.

Regarding `CNC(=O)c1ncn2cc(-c3c(F)ccc([N-]S(=O)(=O)c4cc(Cl)cnc4OC)c3F)ncc12.[Na+]` [Na salt Form III], the “pH (0 h)” value was 1.60 in data set [1] (FaSSGF) and 6.50 in data set [1] (FaSSIF). The Concentration was 45900 ng/mL in data set [1] (FaSSGF, 0.5 h); 4400 ng/mL in data set [1] (FaSSGF, 2.0 h); 4100 ng/mL in data set [1] (FaSSGF, 24 h); 176000 ng/mL in data set [1] (FaSSIF, 0.25 h); 175000 ng/mL in data set [1] (FaSSIF, 0.5 h); 169000 ng/mL in data set [1] (FaSSIF, 0.75 h). Also, the Concentration in data set [1] (FaSSIF, 1.0 h) was 170000 ng/mL; in data set [1] (FaSSIF, 2.0 h), 13200 ng/mL; in data set [1] (FaSSIF, 24 h), 9900 ng/mL. Moreover, the XRPD entry in data set [1] (FaSSGF) and in data set [1] (FaSSIF) was “Changed” throughout. The “pH (24 h)” value is 1.68 in data set [1] (FaSSGF) and 6.86 in data set [1] (FaSSIF).
As for `CNC(=O)c1ncn2cc(-c3c(F)ccc(NS(=O)(=O)c4cc(Cl)cnc4OC)c3F)ncc12` [Sodium salt Form III, 6-(3-((5-chloro-2-methoxypyridine)-3-sulfonamido)-2,6-difluorophenyl)-N-methylimidazo[1,5-a]pyrazine-1-carboxamide], the DVS weight gain in data set [2] (0 to 30% relative humidity) is recorded as 2.6%; in data set [2] (0 to 30% relative humidity, listed as Form III of the sodium salt), “around 2.6%”; in data set [2] (0 to 80% relative humidity), 3.3%; in data set [2] (0 to 90% relative humidity), 4.7%; in data set [2] (60 to 80% relative humidity, listed as Form III of the sodium salt) it was “around 0.7%”; in data set [2] (80 to 90% relative humidity), 1.4%. Also, the “XRPD pattern after DVS testing” value in data set [2] (listed as Form III of the sodium salt) is reported as “did not change”. Besides, the “times more soluble than the free acid (Form II)” value in data set [1] (FaSSGF) is “about 230 times”; in data set [1] (FaSSIF), “about 100 times”. The “Purity (Area %) 220 nm” value in data set [3] (0 day) came to 99.87 Area %; in data set [3] (40° C./75% RH (open), 7 days), 99.87 Area %; in data set [3] (60° C./closed, 7 days) it was 99.85 Area %. Also, in data set [3] (both closed (60° C.) and open (40° C./75% RH) conditions for seven days), the “physical and chemical stability” value was “maintained physical and chemical stability”.
The term Solubility denotes the dissolved amount per volume that the medium holds. As for `CNC(=O)c1ncn2cc(-c3c(F)ccc(NS(=O)(=O)c4cc(Cl)cnc4OC)c3F)ncc12` [Free acid Form I, 6-(3-((5-chloro-2-methoxypyridine)-3-sulfonamido)-2,6-difluorophenyl)-N-methylimidazo[1,5-a]pyrazine-1-carboxamide], the Solubility in data set [4] (Acetone, listed as Form I of the Free Acid) is ~10000 µg/mL (≈ 19700 µM); in data set [4] (DCM, listed as Form I of the Free Acid), ~8000 µg/mL (≈ 15700 µM); in data set [4] (DMSO, listed as Form I of the Free Acid), >230000 µg/mL; in data set [4] (EtOAc, listed as Form I of the Free Acid) it was ~2000 µg/mL (≈ 3930 µM); in data set [4] (EtOH, listed as Form I of the Free Acid), ~1000 µg/mL (≈ 1970 µM); in data set [4] (H2O (water), listed as Form I of the Free Acid), <100 µg/mL. Also, the Solubility is <100 µg/mL in data set [4] (Heptane); ~400 µg/mL (≈ 786 µM) in data set [4] (IPA, listed as Form I of the Free Acid); ~800 µg/mL (≈ 1570 µM) in data set [4] (IPAc, listed as Form I of the Free Acid); ~6000 µg/mL (≈ 11800 µM) in data set [4] (MEK, listed as Form I of the Free Acid); <100 µg/mL in data set [4] (MTBE); ~5000 µg/mL (≈ 9830 µM) in data set [4] (MeCN, listed as Form I of the Free Acid). Moreover, the Solubility in data set [4] (MeOH, listed as Form I of the Free Acid) was ~700 µg/mL (≈ 1380 µM); in data set [4] (NBA, 24 °C, organic solvent or mixture, thermodynamic from solid, NBA, read-out: Solubility), ~700 µg/mL (≈ 1380 µM); in data set [4] (THF, listed as Form I of the Free Acid), ~35000 µg/mL (≈ 68800 µM); in data set [4] (toluene, 24 °C, organic solvent or mixture, thermodynamic from solid, Toluene, read-out: Solubility), < 100 µg/mL.
Take `CNC(=O)c1ncn2cc(-c3c(F)ccc([N-]S(=O)(=O)c4cc(Cl)cnc4OC)c3F)ncc12.[K+]` [Forms I and III of the Potassium Salt]: the “Crystalline form by XRPD” value is recorded as “Form III” in data set [5] (0% water without molecular sieves, KF 0.189 wt. %, 25° C.); “Form III” in data set [5] (0% water without molecular sieves, KF 0.189 wt. %, 35° C.); “Form III” in data set [5] (0% water without molecular sieves, KF 0.189 wt. %, 45° C.); “Form III” in data set [5] (0% water without molecular sieves, KF 0.189 wt. %, 50° C.); “Form III” in data set [5] (10 V% water, KF 14.9 wt. %, 25° C.); “Form III” in data set [5] (10 V% water, KF 14.9 wt. %, 35° C.). Also, the “Crystalline form by XRPD” value in data set [5] (10 V% water, KF 14.9 wt. %, 45° C.) was “Form III”; in data set [5] (10 V% water, KF 14.9 wt. %, 50° C.), “Form III”; in data set [5] (25 V% water, KF 34.5 wt. %, 25° C.) it was “Form III”; in data set [5] (25 V% water, KF 34.5 wt. %, 35° C.), “Form III”; in data set [5] (25 V% water, KF 34.5 wt. %, 45° C.) it was “Form III”; in data set [5] (25 V% water, KF 34.5 wt. %, 50° C.) it was “Form III”. Also, the “Crystalline form by XRPD” value was “Form III” in data set [5] (50 V% water, KF 60.1 wt. %, 25° C.); “Form III” in data set [5] (50 V% water, KF 60.1 wt. %, 35° C.); “Form III” in data set [5] (50 V% water, KF 60.1 wt. %, 45° C.); “Form III” in data set [5] (50 V% water, KF 60.1 wt. %, 50° C.); “Form III” in data set [5] (75 V% water, KF 90.5 wt. %, 25° C.); “Form III” in data set [5] (75 V% water, KF 90.5 wt. %, 35° C.). Also, the “Crystalline form by XRPD” value was “Form III” in data set [5] (75 V% water, KF 90.5 wt. %, 45° C.) and “Form III” in data set [5] (75 V% water, KF 90.5 wt. %, 50° C.).
In the case of `CNC(=O)c1ncn2cc(-c3c(F)ccc([N-]S(=O)(=O)c4cc(Cl)cnc4OC)c3F)ncc12.[K+]` [Forms II and III of the Potassium Salt], in data set [5] (0% water without molecular sieves, KF 0.189 wt. %, 50° C., 20 h), the “Crystalline form by XRPD” value is recorded as “Form I^20 h”.
